Reference: PubChem BioAssay (NCI)
Several values for one entry are separate records, joined by “and”; a condition that tells them apart may be missing. Equal entries are not always repeated.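 Results reflect a 48-hour exposure of cells in 96-well plates to compound at five concentrations. GI50 marks 50% less growth. TGI is the concentration that stops growth completely.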

How the values were obtained:
Test in all cases: DTP human tumour cell line panel, 48 h
K-562 leukemia = tested on: K-562 leukemia
HOP-62 NSCLC = tested on: HOP-62 NSCLC
NCI-H460 lung = tested on: NCI-H460 lung
HT29 colon = tested on: HT29 colon
SK-MEL-2 melanoma = tested on: SK-MEL-2 melanoma
TK-10 renal = tested on: TK-10 renal
NCI-H23 lung = tested on: NCI-H23 lung
EKVX NSCLC = tested on: EKVX NSCLC
MCF7 breast = tested on: MCF7 breast
MDA-MB-435 = tested on: MDA-MB-435

Cc1cc2c(c(N)c1C)C(=O)c1ccccc1C2=O
TGI (K-562 leukemia): > 100 µM | TGI (HOP-62 NSCLC): 40 µM | TGI (NCI-H460 lung): > 100 µM | TGI (HT29 colon): > 100 µM | TGI (SK-MEL-2 melanoma): > 100 µM | TGI (TK-10 renal): 93.1 µM

CCC/C(=N\NC(=O)c1cc2ccccc2cc1O)C(CC)C(=O)CCC(=O)N(Cc1ccccc1)Cc1ccccc1 (stereo unspecified)
TGI (NCI-H23 lung): > 100 µM | TGI (K-562 leukemia): 69.9 µM | TGI (HOP-62 NSCLC): > 100 µM | TGI (NCI-H460 lung): > 100 µM | TGI (HT29 colon): > 100 µM | TGI (EKVX NSCLC): > 100 µM | TGI (SK-MEL-2 melanoma): 77.8 µM | TGI (TK-10 renal): > 100 µM

CCN(CC(COc1ccc2c(c1)[n+]([O-])nc(N)[n+]2[O-])OC(C)=O)C(C)=O (stereo unspecified)
TGI (MCF7 breast): > 100 µM | TGI (NCI-H23 lung): > 100 µM | TGI (K-562 leukemia): > 100 µM | TGI (HOP-62 NSCLC): > 100 µM | TGI (HT29 colon): > 100 µM | TGI (EKVX NSCLC): > 100 µM | TGI (SK-MEL-2 melanoma): > 100 µM | TGI (TK-10 renal): > 100 µM | TGI (MDA-MB-435): > 100 µM

S=C(N/N=C(/c1ccccc1)c1ccccn1)Nc1cccc(Cl)c1
GI50 (MCF7 breast): 5.44 nM | TGI (MCF7 breast): 0.918 µM and 6.01 µM | GI50 (NCI-H23 lung): 1350 nM | TGI (NCI-H23 lung): 5.58 µM and 16.8 µM | GI50 (HOP-62 NSCLC): 2260 nM | TGI (HOP-62 NSCLC): 4.18 µM and 17.7 µM | GI50 (NCI-H460 lung): 612 nM | TGI (NCI-H460 lung): 4.69 µM | GI50 (HT29 colon): 662 nM and 73.8 nM | TGI (HT29 colon): 11.9 µM | GI50 (EKVX NSCLC): 433 nM | TGI (EKVX NSCLC): 1.88 µM and 4.7 µM | GI50 (SK-MEL-2 melanoma): 0.0753 µM | TGI (SK-MEL-2 melanoma): 2.87 µM | GI50 (TK-10 renal): 0.0277 µM | TGI (TK-10 renal): 2.41 µM and 6 µM | GI50 (MDA-MB-435): 1090 nM | TGI (MDA-MB-435): 2.95 µM and 4.56 µM

ClC[Si]12OCCN(CCO1)CCO2
TGI (NCI-H23 lung): > 100 µM | TGI (K-562 leukemia): > 100 µM | TGI (NCI-H460 lung): > 100 µM | TGI (HT29 colon): > 100 µM | TGI (SK-MEL-2 melanoma): > 100 µM | TGI (TK-10 renal): > 100 µM

O=C(O)C1OC(Oc2cc(O)c3c(=O)cc(-c4ccc(O)cc4)oc3c2)C(O)C(O)C1O (stereo unspecified)
TGI (NCI-H23 lung): > 100 µM | TGI (HOP-62 NSCLC): > 100 µM | TGI (NCI-H460 lung): > 100 µM | TGI (HT29 colon): > 100 µM | TGI (EKVX NSCLC): > 100 µM | TGI (SK-MEL-2 melanoma): > 100 µM | TGI (TK-10 renal): > 100 µM

CC1=C(c2cc(C(=O)Nc3nccs3)nc(NC#N)n2)Sc2ccccc2N1
TGI (NCI-H23 lung): > 100 µM | TGI (K-562 leukemia): > 100 µM | TGI (HOP-62 NSCLC): > 100 µM | TGI (NCI-H460 lung): > 100 µM | TGI (HT29 colon): > 100 µM | TGI (EKVX NSCLC): > 100 µM | TGI (SK-MEL-2 melanoma): > 100 µM | TGI (TK-10 renal): > 100 µM

COc1ccc(C#CCC(OC2OC(CO)C(O)C(O)C2O)C(O)c2ccc(OC)c(OC)c2)cc1OC (stereo unspecified)
TGI (NCI-H23 lung): > 100 µM | TGI (K-562 leukemia): > 100 µM | TGI (HOP-62 NSCLC): > 100 µM | TGI (NCI-H460 lung): > 100 µM | TGI (HT29 colon): > 100 µM | TGI (EKVX NSCLC): > 100 µM | TGI (SK-MEL-2 melanoma): > 100 µM

COc1ccc(Cn2c(Br)c3c(c2-c2cc(OC)c(OC)c(OC)c2)CCc2sc(NC(C)=O)nc2-3)cc1
GI50 (MCF7 breast): 3320 nM | TGI (MCF7 breast): > 100 µM | GI50 (NCI-H23 lung): 8600 nM | TGI (NCI-H23 lung): > 100 µM | GI50 (K-562 leukemia): 3.67 µM | TGI (K-562 leukemia): > 100 µM | GI50 (HOP-62 NSCLC): 5520 nM | TGI (HOP-62 NSCLC): > 100 µM | GI50 (NCI-H460 lung): 3050 nM | TGI (NCI-H460 lung): > 100 µM | GI50 (HT29 colon): 3410 nM | TGI (HT29 colon): 11.1 µM | GI50 (SK-MEL-2 melanoma): 3.82 µM | TGI (SK-MEL-2 melanoma): > 100 µM | GI50 (TK-10 renal): 6.17 µM | TGI (TK-10 renal): 37.6 µM | GI50 (MDA-MB-435): 613 nM | TGI (MDA-MB-435): 4.36 µM

Nc1c(C(=O)Nc2ccccc2)sc2nc3c(cc12)CCCC3
GI50 (MCF7 breast): 355 nM | TGI (MCF7 breast): > 100 µM | GI50 (NCI-H23 lung): 1080 nM | TGI (NCI-H23 lung): > 100 µM | GI50 (K-562 leukemia): 0.436 µM | TGI (K-562 leukemia): > 100 µM | GI50 (HOP-62 NSCLC): 781 nM | TGI (HOP-62 NSCLC): > 67.6 µM | GI50 (NCI-H460 lung): 458 nM | TGI (NCI-H460 lung): > 75.9 µM | GI50 (HT29 colon): 740 nM | TGI (HT29 colon): > 26.3 µM | GI50 (SK-MEL-2 melanoma): 3.24 µM | TGI (SK-MEL-2 melanoma): > 67.3 µM | GI50 (TK-10 renal): 16.8 µM | TGI (TK-10 renal): > 100 µM | GI50 (MDA-MB-435): 172 nM | TGI (MDA-MB-435): 0.415 µM

CCCN1CCN(c2ccc3nc(-c4ccc5nc(-c6ccc(OCC)c(OCC)c6)[nH]c5c4)[nH]c3c2)CC1
GI50 (NCI-H23 lung): 251 nM | TGI (NCI-H23 lung): 0.765 µM | GI50 (HOP-62 NSCLC): 956 nM | TGI (HOP-62 NSCLC): 3.2 µM | GI50 (NCI-H460 lung): 387 nM | TGI (NCI-H460 lung): 1.35 µM | GI50 (HT29 colon): 294 nM | TGI (HT29 colon): 1.66 µM | GI50 (EKVX NSCLC): 1400 nM | TGI (EKVX NSCLC): 7.72 µM | GI50 (SK-MEL-2 melanoma): 0.508 µM | TGI (SK-MEL-2 melanoma): 2.01 µM | GI50 (TK-10 renal): 1.3 µM | TGI (TK-10 renal): 4.13 µM | GI50 (MDA-MB-435): 532 nM | TGI (MDA-MB-435): 1.81 µM

COc1ccc(-c2coc3cc(OC)cc(O)c3c2=O)cc1
TGI (MCF7 breast): > 100 µM | TGI (NCI-H23 lung): > 100 µM | TGI (K-562 leukemia): > 100 µM | TGI (HOP-62 NSCLC): > 100 µM | TGI (NCI-H460 lung): > 100 µM | TGI (HT29 colon): > 100 µM | TGI (EKVX NSCLC): > 100 µM | TGI (TK-10 renal): 84.4 µM | TGI (MDA-MB-435): > 100 µM

CCc1ccc(Nc2cc(C)nc3nc(C)nn23)cc1
GI50 (MCF7 breast): 36700 nM | TGI (MCF7 breast): > 100 µM | GI50 (NCI-H23 lung): > 100000 nM | TGI (NCI-H23 lung): > 100 µM | GI50 (K-562 leukemia): 35.5 µM | TGI (K-562 leukemia): > 100 µM | GI50 (HOP-62 NSCLC): > 100000 nM | TGI (HOP-62 NSCLC): > 100 µM | GI50 (NCI-H460 lung): 71100 nM | TGI (NCI-H460 lung): > 100 µM | GI50 (HT29 colon): 39800 nM | TGI (HT29 colon): > 100 µM | GI50 (SK-MEL-2 melanoma): > 100 µM | TGI (SK-MEL-2 melanoma): > 100 µM | GI50 (TK-10 renal): 61.7 µM | TGI (TK-10 renal): > 100 µM | GI50 (MDA-MB-435): 53800 nM | TGI (MDA-MB-435): > 100 µM

CCC(/C(=N\Nc1c(Cl)cc(Cl)cc1Cl)c1ccccc1)n1ccnc1C (stereo unspecified)
TGI (NCI-H23 lung): 25.3 µM | TGI (K-562 leukemia): 51.6 µM | TGI (NCI-H460 lung): 29.4 µM | TGI (HT29 colon): 21.4 µM | TGI (EKVX NSCLC): 35.9 µM | TGI (SK-MEL-2 melanoma): 28.1 µM | TGI (TK-10 renal): 28.2 µM

CC(C)CC(=O)NS(=O)(=O)c1ccccc1
TGI (NCI-H23 lung): > 100 µM | TGI (K-562 leukemia): > 100 µM | TGI (HOP-62 NSCLC): > 100 µM | TGI (NCI-H460 lung): > 100 µM | TGI (HT29 colon): > 100 µM | TGI (EKVX NSCLC): > 100 µM | TGI (SK-MEL-2 melanoma): > 100 µM | TGI (TK-10 renal): > 100 µM

Oc1cc2c(cc1O)-c1[nH]ncc1CC2
TGI (NCI-H23 lung): > 100 µM | TGI (K-562 leukemia): > 100 µM | TGI (HOP-62 NSCLC): > 100 µM | TGI (NCI-H460 lung): > 100 µM | TGI (HT29 colon): > 100 µM | TGI (EKVX NSCLC): 61.1 µM | TGI (SK-MEL-2 melanoma): > 100 µM | TGI (TK-10 renal): > 100 µM

O=C(c1ccc2c3c(ccc(C(=O)C(F)(F)F)c13)CC2)C(F)(F)F
TGI (NCI-H23 lung): > 100 µM | TGI (HOP-62 NSCLC): > 100 µM | TGI (NCI-H460 lung): > 100 µM | TGI (HT29 colon): > 100 µM | TGI (EKVX NSCLC): > 100 µM | TGI (SK-MEL-2 melanoma): > 100 µM | TGI (TK-10 renal): > 100 µM

CCN(CC)CCOc1ccc(C(=C2CCCCC2)c2ccc(OCCN(CC)CC)cc2)cc1
TGI (NCI-H23 lung): 3.56 µM | TGI (K-562 leukemia): 1.02 µM | TGI (HOP-62 NSCLC): 3.27 µM | TGI (NCI-H460 lung): 2.94 µM | TGI (HT29 colon): 2.32 µM | TGI (EKVX NSCLC): 3.36 µM | TGI (SK-MEL-2 melanoma): 3.52 µM | TGI (TK-10 renal): 2.89 µM

CC(=O)OCC1OC(Sc2ccccn2)C=CC1OC(C)=O (stereo unspecified)
TGI (NCI-H23 lung): > 100 µM | TGI (K-562 leukemia): > 100 µM | TGI (HOP-62 NSCLC): > 100 µM | TGI (HT29 colon): > 100 µM | TGI (EKVX NSCLC): > 100 µM | TGI (TK-10 renal): > 100 µM

O=C1c2ccccc2C(=O)c2c1ccc1c2OCO1
TGI (MCF7 breast): > 100 µM | TGI (NCI-H23 lung): > 100 µM | TGI (HOP-62 NSCLC): > 100 µM | TGI (HT29 colon): > 100 µM | TGI (EKVX NSCLC): > 100 µM | TGI (SK-MEL-2 melanoma): > 100 µM | TGI (TK-10 renal): > 100 µM | TGI (MDA-MB-435): > 100 µM

Cc1cccc(NC(=O)CC#N)c1Cl
TGI (NCI-H23 lung): > 100 µM | TGI (K-562 leukemia): > 100 µM | TGI (HT29 colon): > 100 µM | TGI (EKVX NSCLC): > 100 µM | TGI (SK-MEL-2 melanoma): > 100 µM | TGI (TK-10 renal): > 100 µM
